Activity calls are given as the source filed them. No cut-off for these calls is given here.
Key:
[1] = biological target: T1, L-lactate dehydrogenase A chain (Homo sapiens, UniProt P00338); experiment: Inhibition of His-tagged human LDHA at 10 uM incubated for 10 mins using NADH and pyruvate by microplate reader based assay
[2] = tested on: A549; experiment: Growth inhibition of human A549 cells at 50 uM incubated for 72 hrs by MTT assay; format: functional; details: for inhibition of growth at 50 µM: A549, 72 h, read-out: GI
[3] = tested on: NCI-H1975; experiment: Growth inhibition of human NCI-H1975 cells at 50 uM incubated for 72 hrs by MTT assay; format: functional; details: for inhibition of growth at 50 µM: NCI-H1975, 72 h, read-out: GI
[4] = biological target: T1, L-lactate dehydrogenase A chain; experiment: Inhibition of His-tagged human LDHA incubated for 10 mins using NADH and pyruvate by microplate reader based assay
[5] = biological target: T1, L-lactate dehydrogenase A chain; experiment: Binding affinity to His-tagged human LDHA in presence of NAD+ by isothermal titration calorimetry
[6] = biological target: T1, L-lactate dehydrogenase A chain; experiment: Binding affinity to His-tagged human LDHA in absence of NAD+ by isothermal titration calorimetry
[7] = biological target: T1, L-lactate dehydrogenase A chain; experiment: Inhibition of LDHA in human NCI-H1975 cells assessed as reduction in lactate production incubated for 4 hrs; format: cell-based
[8] = tested on: NCI-H1975; experiment: Growth inhibition of human NCI-H1975 cells at 10 uM under hypoxic conditions by IncuCyte zoom live cell analysis; format: functional, cell-based
[9] = tested on: NCI-H1975; experiment: Growth inhibition of human NCI-H1975 cells at 10 uM under normal oxygenated conditions by IncuCyte zoom live cell analysis; format: cell-based; details: nci-h1975, 10 µM
[10] = tested on: NCI-H1975; experiment: Growth inhibition of human NCI-H1975 cells under normal oxygenated conditions by IncuCyte zoom live cell analysis; format: cell-based
[11] = tested on: NCI-H1975; experiment: Growth inhibition of human NCI-H1975 cells under hypoxic conditions by IncuCyte zoom live cell analysis; format: functional, cell-based

Structure (SMILES)	inhibition [1]	growth inhibition (GI) [2]	growth inhibition (GI) [3]	inhibition of growth at 50 µM [2] [%]	inhibition of growth at 50 µM [3] [%]	also measured
O=C(c1cc2n(n1)CCCO2)N1CCC(N2CCN(c3ncccc3C(F)(F)F)CC2)CC1	inactive	inactive	inactive			
COc1ccccc1OCC(=O)NC1CCC(Oc2nc(C)cc(C)n2)CC1 (stereo not drawn)	78.5%			23.3	45.2	
O=C1N[C@](c2ccc(N3CCOCC3)cc2)(c2ccsc2)CC(O)=C1Sc1ccccc1Cl	100%			100	100	
O=C(CNC1CCN(c2ncc(F)cn2)CC1)COCc1ccccc1	45.8%			55.3	39.8	
COc1cc(=O)n2c(c1CCCc1cc(OC)c(OC)c(OC)c1)CCC2	25.7%	inactive	inactive			
COc1cccc(OCC(=O)Nc2ccc3c(c2)NC(=O)C(C)(C)CO3)c1	inactive			26.9	15.3	
Cc1ncn(CC(=O)N2CCC(Oc3cncc(N(C)C)n3)C2)c(=O)c1C (stereo not drawn)	66.3%	inactive	inactive			
O=C(c1cc2n(n1)CCCC2)N1CCN(C(=O)C2(c3cccs3)CCCC2)CC1	inactive	inactive	inactive			
N#Cc1cccnc1N1CCC(CNC(=O)C(=O)Nc2cccc(C(F)(F)F)c2)CC1	inactive			33.5	25.9	
O=C(NCC(=O)N1CCC(Cc2nc(C3CC3)no2)CC1)c1ccccc1	95.2%			69.3	58.7	EC50 [4]: 700 nM; Kd [5]: 1020 nM; Kd [6]: 43.2 µM; inhibition [7]: Dose-dependent effect; growth inhibition (GI) [8]: Active; growth inhibition (GI) [9]: Non-Toxic; IC50 [10]: 36.5 µM; IC50 [11]: 5.7 µM
